Test results from ChEMBL document CHEMBL1135259, “Azapeptides as inhibitors of the hepatitis C virus NS3 serine protease” (Bioorg Med Chem Lett, 2002).

Biological target: NS3 (Hepatitis C virus) (UniProt A3EZJ3)
Test: Binding affinity against Hepatitis C virus NS3 protease was calculated as Kcat
Conditions: Hepacivirus hominis

Chain of NS3 (Hepatitis C virus) (A3EZJ3 as listed by the source): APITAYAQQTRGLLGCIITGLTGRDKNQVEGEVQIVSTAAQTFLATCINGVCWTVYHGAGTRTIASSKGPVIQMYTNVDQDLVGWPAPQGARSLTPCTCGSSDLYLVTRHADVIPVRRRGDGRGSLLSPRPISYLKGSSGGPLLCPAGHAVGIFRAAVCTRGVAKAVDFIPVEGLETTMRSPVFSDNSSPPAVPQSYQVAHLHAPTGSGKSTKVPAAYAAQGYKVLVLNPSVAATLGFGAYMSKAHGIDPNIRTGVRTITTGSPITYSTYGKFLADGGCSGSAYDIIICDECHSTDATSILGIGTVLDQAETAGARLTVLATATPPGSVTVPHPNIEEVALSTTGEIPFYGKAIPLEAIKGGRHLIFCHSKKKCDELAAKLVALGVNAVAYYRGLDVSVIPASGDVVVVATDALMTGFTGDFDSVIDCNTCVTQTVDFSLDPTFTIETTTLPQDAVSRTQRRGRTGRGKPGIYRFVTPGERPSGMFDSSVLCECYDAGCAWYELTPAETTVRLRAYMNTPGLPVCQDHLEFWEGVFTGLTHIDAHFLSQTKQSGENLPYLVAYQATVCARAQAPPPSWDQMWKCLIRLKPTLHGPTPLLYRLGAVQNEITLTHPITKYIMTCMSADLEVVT

## CCCN(NC(=O)[C@H]1CCCN1C(=O)[C@@H](NC(=O)[C@@H](NC(=O)[C@H](CC(=O)O)NC(C)=O)C(C)C)C(C)C)C(=O)Oc1ccc([N+](=O)[O-])cc1
  k cat: 0.00833 s⁻¹

## CCCC(NC(=O)[C@H]1CCCN1C(=O)[C@@H](NC(=O)[C@@H](NC(=O)[C@H](CC(=O)O)NC(=O)[C@H](CCC(=O)O)NC(=O)[C@@H](NC(=O)[C@H](CC(=O)O)NC(C)=O)[C@@H](C)O)C(C)C)C(C)C)C(=O)Oc1ccc([N+](=O)[O-])cc1 (stereo not given in full)
  k cat: 1.67 s⁻¹

## CCCN(NC(=O)[C@H]1CCCN1C(=O)[C@@H](NC(=O)[C@@H](NC(=O)[C@H](CC(=O)O)NC(=O)[C@H](CCC(=O)O)NC(=O)[C@@H](NC(C)=O)[C@@H](C)O)C(C)C)C(C)C)C(=O)Oc1ccc([N+](=O)[O-])cc1
  k cat: 0.00833 s⁻¹

## CCCN(NC(=O)[C@H]1CCCN1C(=O)[C@@H](NC(=O)[C@@H](NC(C)=O)C(C)C)C(C)C)C(=O)Oc1ccc([N+](=O)[O-])cc1
  k cat: 0.00667 s⁻¹

## CCCN(NC(=O)[C@H]1CCCN1C(=O)[C@@H](NC(=O)[C@@H](NC(=O)[C@H](CC(=O)O)NC(=O)[C@H](CCC(=O)O)NC(C)=O)C(C)C)C(C)C)C(=O)Oc1ccc([N+](=O)[O-])cc1
  k cat: 0.00833 s⁻¹
